Reference: ChEMBL document CHEMBL5346862, “Discovery of the thieno[2,3-d]pyrimidine-2,4-dione derivative 21a: A potent and orally bioavailable gonadotropin-releasing hormone receptor antagonist” (Eur J Med Chem, 2022)

Legend:
[1] = Intrinsic clearance in rat liver microsomes incubated for 15 mins in presence of NADPH by LC-MS analysis; assay type: ADME, Microsome; conditions: read-out: CLH
[2] = Apparent permeability across apical to basolateral side in human Caco-2 cells incubated for 180 mins by LC/MS/MS analysis; assay type: ADME, cell-based; conditions: for Papp A→B at 3 h: Caco-2
[3] = Apparent permeability across basolateral to apical side in human Caco-2 cells incubated for 180 mins by LC/MS/MS analysis; assay type: ADME, cell-based; conditions: for Papp B→A at 3 h: Caco-2
[4] = Intrinsic clearance in human liver microsomes incubated for 15 mins in presence of NADPH by LC-MS analysis; assay type: ADME, Microsome; conditions: read-out: CLH
[5] = Oral bioavailability in Sprague-Dawley rat at 12 mg/kg measured for 24 hrs by LC/MS analysis; assay type: ADME, organism-based; conditions: in vivo
[6] = Clearance in Sprague-Dawley rat at 1 mg/kg, iv measured for 24 hrs by LC/MS analysis; assay type: ADME, organism-based; conditions: in vivo
[7] = Cmax in Sprague-Dawley rat at 12 mg/kg, po measured for 24 hrs by LC/MS analysis; assay type: ADME, organism-based; design: dose 12 mg/kg, time 24 hrs, route po; conditions: in vivo
[8] = Cmax in Sprague-Dawley rat at 1 mg/kg, iv measured for 24 hrs by LC/MS analysis; assay type: ADME, organism-based; design: time 24 hrs, dose 1 mg/kg, route iv; conditions: in vivo
[9] = Half-life in Sprague-Dawley rat at 12 mg/kg, po measured for 24 hrs by LC/MS analysis; assay type: ADME, organism-based; conditions: in vivo
[10] = Tmax in Sprague-Dawley rat at 12 mg/kg, po measured for 24 hrs by LC/MS analysis; assay type: ADME, organism-based; conditions: in vivo
[11] = AUC(last) in Sprague-Dawley rat at 12 mg/kg, po measured for 24 hrs by LC/MS analysis; assay type: ADME, organism-based; design: time 24 hrs, dose 12 mg/kg, route po; conditions: in vivo
[12] = AUC(last) in Sprague-Dawley rat at 1 mg/kg, iv measured for 24 hrs by LC/MS analysis; assay type: ADME, organism-based; design: dose 1 mg/kg, time 24 hrs, route iv; conditions: in vivo
[13] = Half-life in Sprague-Dawley rat at 1 mg/kg, iv measured for 24 hrs by LC/MS analysis; assay type: ADME, organism-based; conditions: in vivo
[14] = Drug uptake in Sprague-Dawley rat hypothalamus and pituitary at 12 mg/kg, po measured after 1 hr by LC-MS/MS analysis; assay type: ADME, organism-based, Hypothalamus/Pituitary gland; conditions: read-out: Drug uptake
[15] = Lipophilicity, log D of the compound at pH 7.4; assay type: physicochemical; conditions: buffer
[16] = Drug uptake in Sprague-Dawley rat hypothalamus and pituitary at 12 mg/kg, po measured after 4 hrs by LC-MS/MS analysis; assay type: ADME, organism-based, Hypothalamus/Pituitary gland; conditions: read-out: Drug uptake
[17] = Drug uptake in Sprague-Dawley rat heart at 12 mg/kg, po measured after 1 hr by LC-MS/MS analysis; assay type: ADME, organism-based; conditions: read-out: Drug uptake
[18] = Drug uptake in Sprague-Dawley rat hypothalamus and pituitary at 12 mg/kg, po measured after 12 hrs by LC-MS/MS analysis; assay type: ADME, organism-based, Hypothalamus/Pituitary gland; conditions: read-out: Drug uptake

`CONC(=O)Nc1ccc(-c2sc3c(c2CN(C)C)c(=O)n(-c2ccc(OC)nn2)c(=O)n3Cc2c(F)cccc2C(F)(F)F)cc1` gave a CLint scaled at […] [1] of under 0.81 L/h/kg, a Papp A→B at 3 h [2] of 0.11 nm/s and a Papp B→A at 3 h [3] of 45.8 nm/s. The CLint scaled at […] [4] was under 0.405 L/h/kg.

Work on `COc1ccc(-n2c(=O)c3c(CN(C)C)c(-c4ccc(NC(=O)NOCC(F)(F)F)cc4)sc3n(Cc3c(F)cccc3F)c2=O)nn1` yielded a CLint scaled at […] [1] of 2.33 L/h/kg, a Papp A→B at 3 h [2] of 0.09 nm/s and a Papp B→A at 3 h [3] of 172 nm/s. It also gave a CLint scaled at […] [4] of under 0.405 L/h/kg.

`COCCN(C)Cc1c(-c2ccc(NC(=O)NOC)cc2)sc2c1c(=O)n(-c1ccc(OC)nn1)c(=O)n2Cc1c(F)cccc1F` gave a bioavailability [5] of 10.9%, a clearance [6] of 2.32 L/h/kg and a CLint scaled at […] [1] of 0.948 L/h/kg. For the same compound, the Papp A→B at 3 h [2] was 0.31 nm/s, the Cmax [7] was 0.329 µM and the Papp B→A at 3 h [3] was 422 nm/s. For the same compound, the Cmax [8] was 1.23 µM, the half-life [9] was 4.33 h and the Tmax [10] was 0.31 h. For the same compound, the CLint scaled at […] [4] was under 0.405 L/h/kg, the AUC(0-t) at 24 h [11] was 904 nM·h and the AUC(0-t) at 24 h [12] was 689 nM·h. It also gave a half-life [13] of 2.6 h.

Compound `CONC(=O)Nc1ccc(-c2sc3c(c2CN(C)CCOC(F)(F)F)c(=O)n(-c2ccc(OC)nn2)c(=O)n3Cc2c(F)cccc2F)cc1` has a bioavailability [5] of 44.7%, a clearance [6] of 1.05 L/h/kg and a CLint scaled at […] [1] of 2.23 L/h/kg. It also gave a Papp A→B at 3 h [2] of 9.84 nm/s, a Cmax [7] of 0.92 µM and a Cmax [8] of 3.92 µM. It also gave a half-life [9] of 4.86 h, a Tmax [10] of 1.13 h and a CLint scaled at […] [4] of 0.853 L/h/kg. The AUC(0-t) at 24 h [11] was 7370 nM·h, the AUC(0-t) at 24 h [12] was 1370 nM·h and the half-life [13] was 2.79 h.

Compound `COc1ccc(-n2c(=O)c3c(CN(C)C)c(-c4ccc(NC(=O)NOCC(F)F)cc4)sc3n(Cc3c(F)cccc3F)c2=O)nn1` has a CLint scaled at […] [1] of 2.72 L/h/kg, a Papp A→B at 3 h [2] of 0.1 nm/s and a Papp B→A at 3 h [3] of 156 nm/s. It also gave a CLint scaled at […] [4] of 0.443 L/h/kg.

With `CNc1ccc(-n2c(=O)c3c(CN(C)C)c(-c4ccc(NC(=O)NOC)cc4)sc3n(Cc3c(F)cccc3F)c2=O)nn1` the CLint scaled at […] [1] was 2.1 L/h/kg, the Papp A→B at 3 h [2] was 0.5 nm/s and the Papp B→A at 3 h [3] was 5 nm/s. For the same compound, the CLint scaled at […] [4] was under 0.405 L/h/kg.

In the case of `CONC(=O)Nc1ccc(-c2sc3c(c2CN(C)C)c(=O)n(-c2ccc(OC)nn2)c(=O)n3Cc2c(F)cccc2F)cc1` [RELUGOLIX], the bioavailability [5] is reported as 5.7%, the clearance [6] is reported as 4.7 L/h/kg and the concentration at 1 h [14] is reported as 4.46 ng/g. The CLint scaled at […] [1] was 1.77 L/h/kg, the Papp ([2]; caco-2, 3 h) was 0.007 10^-6 cm/s and the Cmax [7] was 0.0353 µM. The logD [15] was 1.24, the Papp ([3]; caco-2, 3 h) was 13.84 10^-6 cm/s and the Cmax [8] was 0.544 µM. It also gave a half-life [9] of 3.88 h, a Tmax [10] of 0.33 h and a CLint scaled at […] [4] of 0.313 L/h/kg. The AUC(0-t) at 24 h [11] was 234 nM·h, the AUC(0-t) at 24 h [12] was 340 nM·h and the concentration at 4 h [16] was 9.2 ng/g. For the same compound, the half-life [13] was 3.64 h, the concentration at 1 h [17] was 429 ng/g and the concentration at 12 h [18] was 3.2 ng/g.

For `CONC(=O)Nc1ccc(-c2sc3c(c2CN(C)C)c(=O)n(-c2ccc(OC(F)F)nn2)c(=O)n3Cc2c(F)cccc2F)cc1`, the CLint scaled at […] [1] was 0.996 L/h/kg, the Papp A→B at 3 h [2] was 0.19 nm/s and the Papp B→A at 3 h [3] was 151 nm/s. It also gave a CLint scaled at […] [4] of under 0.405 L/h/kg.

`CCc1ccc(-n2c(=O)c3c(CN(C)C)c(-c4ccc(NC(=O)NOC)cc4)sc3n(Cc3c(F)cccc3F)c2=O)nn1` showed a CLint scaled at […] [1] of 1.88 L/h/kg, a Papp A→B at 3 h [2] of 0.13 nm/s and a Papp B→A at 3 h [3] of 102 nm/s. It also gave a CLint scaled at […] [4] of 1.06 L/h/kg.

`CONC(=O)Nc1ccc(-c2sc3c(c2CN(C)C)c(=O)n(-c2cccc(OC)c2F)c(=O)n3Cc2c(F)cccc2F)cc1` showed a CLint scaled at […] [1] of 12.7 L/h/kg, a Papp A→B at 3 h [2] of 0.51 nm/s and a Papp B→A at 3 h [3] of 211 nm/s. The CLint scaled at […] [4] was 3.12 L/h/kg.

For `C[C@H]1O[C@@H](O[C@H]2[C@@H](O)C[C@H](O[C@H]3[C@@H](O)C[C@H](O[C@H]4CC[C@@]5(C)[C@H](CC[C@@H]6[C@@H]5C[C@@H](O)[C@]5(C)[C@@H](C7=CC(=O)OC7)CC[C@]65O)C4)O[C@@H]3C)O[C@@H]2C)C[C@H](O)[C@@H]1O` [DIGOXIN], the Papp A→B at 3 h [2] was 0.13 nm/s and the Papp B→A at 3 h [3] was 128 nm/s.
